From patent US7985771B2, “Furanone derivatives” (Monsanto Technology LLC, priority 2002, dated 2011)

What follows are compounds tested on ELAM (E-selectin) expression in endothelial cells (assay: E-selectin (ELAM) cell inflammation assay). Conditions: LPS and IL-1β stimulation, read-out: reduction of expression of ELAM, EC50.
Type: cell-based
Experimental: Endothelial-Leukocyte Adhesion Molecule (ELAM), also known as E-selectin, is expressed on the surface of endothelial cells. In this assay, lipopolysaccharide (LPS) and IL-1β are used to stimulate the expression of ELAM; test agents are tested for their abilities to reduce this expression, in accordance with studies showing that reduction of leukocyte adhesion to endothelial cell surface is associated with decreased cellular damage (e.g., Takada, M., Et al., Transplantation 64: 1520-25, 1997; Steinberg, J. B., et al., J. Heart Lung Trans. 13:306-313, 1994).
Endothelial cells may be selected from any of a number of sources and cultured according to methods known in the art; including, for example, coronary artery endothelial cells, human brain microvascular endothelial cells (HBMEC; Hess, D.C., et al., Neurosci. Left. 213(1): 37-40, 1996), or lung endothelial cells. Cells are conveniently cultured in 96-well plates. Cells are stimulated by adding a solution to each well containing 10 μg/ml LPS and 100 pg/ml IL-1β for 6 hours in the presence of test agent (specific concentrations and time may be adjusted depending on the cell type). Treatment buffer is removed and replaced with pre-warmed Fixing Solution® (100 μl/well) for 25 minutes at room temperature. Cells are then washed 3×, then incubated with Blocking Buffer (PBS+2% FBS) for 25 minutes at room temperature. Blocking Buffer containing Monoclonal E-Selectin Antibody (1:750, Sigma Catalog #S-9555) is added to each well. Plates are sealed and stored at 4° overnight. Plates are washed 4× with 160 μL Blocking Buffer per well. Second Antibody-HRP diluted 1:5000 in Blocking Buffer is then added (100 μL/well), and plates are incubated at room temperature (protected from light) for two hours. Plates are then washed 4× with Blocking Buffer before addition of 100 μL of ABTS Substrate solution at room temperature (Zymed, Catalog #00-2024). Wells are allowed to develop for 35 minutes, before measurement at 402 nm in a Fluoroskan® Reader with shake program for 10 seconds. Positive results are recorded as a decrease in ELAM concentration in tested wells, as compared to control wells.

EC50, ≤ 30 µM:
O=C1OC(CSc2nc3ccccc3s2)(C(=O)O)C(Sc2nc3ccccc3s2)=C1O (stereo not shown) [3-(Benzothiazol-2-ylsulfanyl)-2-(benzothiazol-2-ylsulfanylmethyl)-4-hydroxy-5-oxo-2,5-dihydro-furan-2-carboxylic acid]
CCOC(=O)C1(CSC(=S)N2CCCC2)OC(=O)C(O)=C1SC(=S)N1CCCC1 (stereo not shown) [4-Hydroxy-5-oxo-3-(pyrrolidine-1-carbothioylsulfanyl)-2-(pyrrolidine-1-carbothioylsulfanylmethyl)-2,5-dihydro-furan-2-carboxylic acid ethyl ester]
CCOC(=O)C1(CSc2ccnc3cc(C(F)(F)F)ccc23)OC(=O)C(O)=C1Sc1ccnc2cc(C(F)(F)F)ccc12 (stereo not shown) [4-Hydroxy-5-oxo-3-(7-trifluoromethyl-quinolin-4-ylsulfanyl)-2-(7-trifluoromethyl-quinolin-4-ylsulfanylmethyl)-2,5-dihydro-furan-2-carboxylic acid ethyl ester]
CCOC(=O)C1(CSCCS(=O)(=O)O)OC(=O)C(O)=C1SCCS(=O)(=O)O (stereo not shown) [4-Hydroxy-5-oxo-3-(2-sulfo-ethylsulfanyl)-2-(2-sulfo-ethylsulfanylmethyl)-2,5-dihydro-furan-2-carboxylic acid ethyl ester]
CCCCCCSCC1(C(=O)OCC)OC(=O)C(O)=C1SCCCCCC (stereo not shown) [3-Hexylsulfanyl-2-hexylsulfanylmethyl-4-hydroxy-5-oxo-2,5-dihydro-furan-2-carboxylic acid ethyl ester]
CCOC(=O)C1(CSc2ccc3ccccc3c2)OC(=O)C(O)=C1Sc1ccc2ccccc2c1 (stereo not shown) [4-Hydroxy-3-(naphthalen-2-ylsulfanyl)-2-(naphthalen-2-ylsulfanylmethyl)-5-oxo-2,5-dihydro-furan-2-carboxylic acid ethyl ester]
CCOC(=O)C1(C[S+]([O-])Cc2ccco2)OC(=O)C(O)=C1S(=O)(=O)Cc1ccco1 (stereo not shown) [2-(Furan-2-ylmethanesulfinylmethyl)-3-(furan-2-ylmethanesulfonyl)-4-hydroxy-5-oxo-2,5-dihydro-furan-2-carboxylic acid ethyl ester]
CCOC(=O)C1(CSc2ccccc2Cl)OC(=O)C(O)=C1Sc1ccccc1Cl (stereo not shown) [3-(2-Chloro-phenylsulfanyl)-2-(2-chloro-phenylsulfanylmethyl)-4-hydroxy-5-oxo-2,5-dihydro-furan-2-carboxylic acid ethyl ester]
CCOC(=O)C1(CSc2nc3cc(Cl)c(Cl)cc3[nH]2)OC(=O)C(O)=C1Sc1nc2cc(Cl)c(Cl)cc2[nH]1 (stereo not shown) [3-(5,6-Dichloro-1H-benzoimidazol-2-ylsulfanyl)-2-(5,6-dichloro-1H-benzoimidazol-2-ylsulfanylmethyl)-4-hydroxy-5-oxo-2,5-dihydro-furan-2-carboxylic acid ethyl ester]
CCOC(=O)C1(CSc2nnnn2-c2ccccc2)OC(=O)C(O)=C1Sc1nnnn1-c1ccccc1 (stereo not shown) [4-Hydroxy-5-oxo-3-(1-phenyl-1H-tetrazol-5-ylsulfanyl)-2-(1-phenyl-1H-tetrazol-5-ylsulfanylmethyl)-2,5-dihydro-furan-2-carboxylic acid ethyl ester]
CN(C)CCSCC1(C(=O)O)OC(=O)C(O)=C1SCCN(C)C (stereo not shown) [3-(2-Dimethylamino-ethylsulfanyl)-2-(2-dimethylamino-ethylsulfanylmethyl)-4-hydroxy-5-oxo-2,5-dihydro-furan-2-carboxylic acid]
CN(C)CC(=O)OCC1(CSc2nc3ccccc3[nH]2)OC(=O)C(O)=C1Sc1nc2ccccc2[nH]1 (stereo not shown) [Dimethylamino-acetic acid 3-(1H-benzoimidazol-2-ylsulfanyl)-2-(1H-benzoimidazol-2-ylsulfanylmethyl)-4-hydroxy-5-oxo-2,5-dihydro-furan-2-ylmethyl ester]
CCOC(=O)C1OC(=O)C(O)=C1Sc1nc2ccccc2[nH]1 (stereo not shown) [3-(1H-Benzoimidazol-2-ylsulfanyl)-4-hydroxy-5-oxo-2,5-dihydro-furan-2-carboxylic acid ethyl ester]
